This data set can be described thus: Isothermal compression of Langmuir monolayers of dendrons at the air/water interface. Type of data set: physicochemical. The settings on record: 25±0.5° C. As for the experimental part: The evaluation of anchoring capability of the dendrons at interfacial film of microbubbles was evaluated by investigating the isothermal compression of Langmuir monolayers formed by these molecules at the air/water interface. Langmuir monolayers constitute a bidimensional experimental model of the interfacial film of the nanoemulsions. In the above-mentioned experiments, the surface pressure (π) versus molecular area (A) isotherms were recorded using a Langmuir minitrough (KSV NIMA, Finland) equipped with two movable barriers (initial area: 365×75 mm^2, compression speed: 10 cm^2 min^−1, which corresponded to a reduction of the total area of ˜3.6% min^−1). π was measured using the Wilhelmy plate (paper) method. The trough was maintained at 25±0.5° C. Solutions of oligo(ethylene oxide) dendrons (1 mmol L^−1) in chloroform were spread on the surface of water (320 mL). Subsequently, 15 min was allowed for chloroform to evaporate and the film to equilibrate before compression was initiated. All the experiments were performed at least three times. Since our Langmuir trough only allowed for a surface area compression of about 10, isotherms were recorded in three separate experiments.

These results are taken from patent US20250375539A1, “COMPOSITIONS OF DISPERSED SYSTEMS FOR BIOMEDICAL APPLICATIONS, PROCESS FOR THEIR PREPARATION AND USES THEREOF” (SUPERBRANCHE, priority 2022, published 2025).

As to `CCOP(=O)(Cc1cc(CP(=O)(OCC)OCC)cc(OCCNC(=O)c2cc(OCCOCCOCCOCCOC)c(OCCOCCOCCOCCOC)c(OCCOCCOCCOCCOC)c2)c1)OCC` [DM], the “collapse pressure / surface pressure of the Langmuir monolayer” value was ~10 mN m^−1.
